Test results from patent US5187305A, “S-nitroso-N-alkonoylpenicillamines” (Glaxo Inc., priority 1990, dated 1993).

Legend:
RAT AORTA = test: Aorta Vasodilation Assay, rat aorta rings (endothelium removed, phenylephrine-contracted); set-up: species or system male Sprague-Dawley rats; conditions: 20% O2, without methylene blue; for RELATIVE POTENCY: compared with nitroprusside; for IC50: read-out: IC50 (relaxation)
Text: (§1) The thoracic aortas removed from euthanized male Sprague-Dawley rats (200-300 g) and male New Zealand, white rabbits (1.5-3.0 kg) are cleaned of adherent connective tissue and cut into rings 3 to 5 mm in length. Endothelium is removed by rolling the rings on moist filter paper. Rings are suspended in an organ chamber containing a physiological salt solution of (mM): NaCl, 118.4; KCl, 4.7; MgSO4.H2 O, 1.2; CaCl2.2H2 O, 2.5; KH2 PO4, 1.2; NaHCO3, 25.0; and dextrose, 11.1. The bathing solution is maintained at 37° C. and half of the tissues are aerated with 95% O2 /5% CO2 and half are aerated with 20% O2 /5% CO2 /75% N2. Tissues are mounted to isometric force displacement transducers and responses are recorded on a polygraph.
(§2) All rings are gradually stretched (over a 120 min. period) to a basal resting tension of 2 g (rat) and 4 g (rabbit), which is maintained throughout the assay. During the basal tension adjustment period, the rings are exposed to KCl (40 mM) two to three times to verify tissue contractility. During this period, the effectiveness of endothelium removal is confirmed by the absence of the characteristic relaxation seen with acetylcholine (1×10^-6 M) in endothelium-intact (but not endothelium-removed) rings contracted with phenylephrine (1×10^-7 M).
(§3) Methylene blue (1×10^-5 M) is added to half of the tissues aerated at 20% O2 and 95% O2 to inhibit basal cGMP accumulation. Phenylephrine (1×10^-7 M) is then added and the rings are allowed to obtain a stable contractile response after which time, SOD (100 U/mL) is added to the tissues. The test compound is then added in a cumulative fashion. After the stabilization of the response to the last concentration of the test compound, sodium nitroprusside (1×10^-4 M) is added to induce complete relaxation.

RABBIT AORTA = test: Aorta Vasodilation Assay, rabbit aorta rings (endothelium removed, phenylephrine-contracted); set-up: species or system male New Zealand white rabbits; conditions: 20% O2, without methylene blue; for RELATIVE POTENCY: compared with nitroprusside; for IC50: Oryctolagus cuniculus, read-out: IC50 (relaxation)
Text: as §1, §2, §3

[1] = compared with glyceryl trinitrate; cited from earlier work
[2] = among nitrosothiols; cited from earlier work
[3] = orally (including sublingually), rectally, vaginally, nasally or transdermally; cited from earlier work

IC50 (RAT AORTA) [nM]	IC50 (RABBIT AORTA) [nM]	Structure (SMILES)	RELATIVE POTENCY (RAT AORTA)	RELATIVE POTENCY (RABBIT AORTA)	Tolerance [1]	Stability [2]	Absorption [3]
7.6	65	CC(=O)N[C@@H](C(=O)Oc1ccccc1)C(C)(C)SN=O [(I), R^1 = PHENYL R^2 = METHYL, N-Acetyl-3-(nitrosothio)-D-valine phenyl ester]	3.04	3.25			
140	160	CC(=O)N[C@@H](C(=O)O)C(C)(C)SN=O [SNAP, N-acetyl-3-(nitrosothio)-D-valine]	56	8.0	much less of a problem than tolerance of gyceryl trinitrate	one of the most stable nitrosothiols known	poorly absorbed by these routes

Structure (SMILES)	IC50 (RAT AORTA) [nM]	IC50 (RABBIT AORTA) [nM]	RELATIVE POTENCY (RAT AORTA)	RELATIVE POTENCY (RABBIT AORTA)	Tolerance [1]	Stability [2]	Absorption [3]
O=[N+]([O-])OCC(CO[N+](=O)[O-])O[N+](=O)[O-] [NITROGLYCERIN, glyceryl trinitrate]	9.4	23	3.76	1.15			
